Test results: ChEMBL document CHEMBL5131523, “Long-Awaited Small-Molecule Drug Candidate for Drugging the Next Undruggable KRASG12D Mutant in Cancer Therapy” (ACS Med Chem Lett, 2022)

System: BaF3
Experiment: Antiproliferative activity against mouse BaF3 cells harboring KRAS G12D mutant assessed as inhibition of cell proliferation incubated for 3 days by CellTiter-Glo assay
Assay type: toxicity, cell-based
Conditions: BaF3, 72 h

Row | Compound | IC50 [nM]
1 | Oc1cc(-c2nc(Cl)c3c(N4C[C@H]5CC[C@@H](C4)N5)nc(OC[C@@]45CCCN4C[C@H](F)C5)nc3c2F)c2ccccc2c1 | ≤ 500
2 | Oc1cc(-c2nc(O)c3c(N4C[C@H]5CC[C@@H](C4)N5)nc(OC[C@@]45CCCN4C[C@H](F)C5)nc3c2F)c2c(Cl)c(F)ccc2c1 | 500
3 | C#Cc1c(F)ccc2cc(O)cc(-c3nc(OCC(F)F)c4c(N5C[C@H]6CC[C@@H](C5)N6)nc(OC[C@@]56CCCN5C[C@H](F)C6)nc4c3F)c12 | ≤ 500
4 | C#Cc1c(F)ccc2cc(O)cc(-c3nc(OC(F)F)c4c(N5C[C@H]6CC[C@@H](C5)N6)nc(OC[C@@]56CCCN5C[C@H](F)C6)nc4c3F)c12 | ≤ 500
5 | CCOc1nc(-c2cc(O)cc3ccc(F)c(Cl)c23)c(F)c2nc(OC[C@@]34CCCN3C[C@H](F)C4)nc(N3C[C@H]4CC[C@@H](C3)N4)c12 | ≤ 500
6 | C#Cc1c(F)ccc2cc(O)cc(-c3nc(OC(C)C)c4c(N5C[C@H]6CC[C@@H](C5)N6)nc(OC[C@@]56CCCN5C[C@H](F)C6)nc4c3F)c12 | ≤ 500
7 | C#Cc1c(F)ccc2cc(O)cc(-c3nc(OC(C)C)c4c(N5C[C@H]6CC[C@@H](C5)N6)nc(C(F)F)nc4c3F)c12 | ≤ 500
8 | C#Cc1c(F)ccc2cc(O)cc(-c3nc(OC(C)C)c4c(N5C[C@H]6CC[C@@H](C5)N6)nc(NC)nc4c3F)c12 | 500
9 | Fc1c(-c2cccc3cccc(Cl)c23)ncc2c(N3C[C@H]4CC[C@@H](C3)N4)nc(OCC34CCCN3CCC4)nc12 | ≤ 500
10 | C#Cc1c(F)ccc2cc(O)cc(-c3nc(OCC)c4c(N5CCNC6(CCC6)C5)nc(OC[C@@]56CCCN5C[C@H](F)C6)nc4c3F)c12 | ≤ 500
11 | Cc1nc(-c2cc(O)cc3cccc(Cl)c23)c(F)c2nc(OC[C@@]34CCCN3C[C@H](F)C4)nc(N3C[C@H]4CC[C@@H](C3)N4)c12 | ≤ 500
12 | Cc1cccc2cc(O)cc(-c3nc(C)c4c(N5C[C@H]6CC[C@@H](C5)N6)nc(OC[C@@]56CCCN5C[C@H](F)C6)nc4c3F)c12 | ≤ 500
